How the values were obtained:
[1] = 5-day oral rat study, pharmacokinetic analysis of plasma exposure; type: in vivo
Method: (§1) All animal experiments were conducted in accordance with the Guiding Principles in the Use of Animals in Toxicology (http://www.toxicology.org/ai/air/air6.asp) and were approved by Abbott's Institutional Animal Care and Use Committee (IACUC). Male Sprague-Dawley rats [Crl:CD®(SD)IGS BR], weighing ~250 g at study initiation were obtained from Charles River Laboratories, Inc. (Wilmington, MA). Rats were housed singly in ventilated, stainless steel, wire-bottom hanging cages and fed non-certified Rodent Chow (Harlan Labs, Madison, WI), and water ad libitum and acclimated for at least 5 days after arrival. Rats were randomly assigned to various treatment groups (3 rats/group) and were dosed once daily by oral gavage with vehicle (0.2% hydroxypropylmethylcellulose at a dose volume of 10 ml/kg) or with 30, 100, or 200 mg/kg of A-998679. All rats were fasted overnight after their last dose, weighed and sacrificed under isoflurane anesthesia. For histopathological evaluation, liver, heart, kidney, spleen, bone (sternum) with marrow, gastrointestinal tract (duodenum with pancreas, jejunum, ileum, cecum, and colon), thymus, and lung were fixed in formalin, routinely processed, and embedded in paraffin. Paraffin sections (4 μm) were stained with hematoxylin and eosin. Liver and small intestine (jejunum) were also flash frozen in liquid nitrogen and stored at −80°C until processing for gene expression profiling. Serum clinical chemistry parameters were quantified using an Aeroset Clinical Chemistry Analyzer (Abbott Laboratories, Abbott Park, IL) and included alanine amino transferase (ALT), aspartate amino transferase (AST), gamma glutamyltransferase (GGT), and alkaline phosphatase (ALP) activities.
Serial blood samples were obtained from a tail vein of each rat 0.5, 1.5, 3, 6, 9, 12, and 24 h after drug administration on the first and last day of dosing. Plasma was separated by centrifugation and stored frozen prior to analysis. A-998679 was separated from the plasma using protein precipitation with acetonitrile. A-998679 and the internal standard were separated from co-extracted contaminants on a 50 × 3 mm Betasil CN column (Thermosystem) with an acetonitrile: 10 mM ammonium acetate mobile phase (35:65, by volume) at a flow rate of 0.4 ml/min at ambient temperature. Concentrations of A-998679 in the plasma extracts were determined by HPLC-MS/MS (API2000; Applied Biosystems). Peak plasma concentrations (Cmax) and the time to peak plasma concentration (Tmax) were read directly from the plasma concentration data for each rat. A-998679 plasma concentration data were submitted to multi-exponential curve fitting using WinNonlin. The area under the plasma concentration-time curve from 0 to t hours (time of the last measurable plasma concentration) after dosing (AUC0-t) was calculated using the linear trapezoidal rule for the plasma concentration-time profiles. The residual area extrapolated to infinity, determined as the final measured plasma concentration (Ct) divided by the terminal elimination rate constant (β), was added to AUC0-t to produce the total area under the curve (AUC0-∞).

Cyp1a1 [2] = test: Immunohistochemistry of Cyp1a1 in rat liver; type: in vivo; settings: 5 days of treatment; not detectable in control livers
Method: as §1, with “For histopathological evaluation, liver, heart, kidney, spleen, bone (sternum) with marrow, gastrointestinal tract (duodenum with pancreas, jejunum, ileum, cecum, and colon), thymus, and lung were fixed in formalin, routinely processed, and embedded in paraffin. Paraffin sections (4 μm) were stained with hematoxylin and eosin. Liver and small intestine (jejunum) were also flash frozen in liquid nitrogen and stored at −80°C until processing for gene expression profiling.” left out, “activities. […]” for “activities.”

Cyp1a1 [3] = test: Cyp1a1 mRNA induction in primary rat hepatocytes; type: cell-based; settings: 10 μM, 24 h, data not shown
Method: Rat hepatocytes were isolated in a perfusion procedure as described previously (Elliget and Kolaja, [1983]; Waring et al., [2001]). The beagle dog hepatocytes were isolated in the same manner, except for adjustment of flow rate and buffer volume to scale to liver size. Cells were plated at a seeding density of 1.0 × 10^6 cells per well on 6-well, collagen-type I coated plates (BD Biosciences, Bedford, MA) in hepatocyte plating medium (Celsis, Baltimore, MD). Cells were allowed to attach for 24 h in a 37°C humidified incubator with a 5% CO2 atmosphere and were dosed for 24 h (rat) or 48 h (dog) with vehicle control [0.1% DMSO (v/v)] or 10 μM A-998679 in fresh treatment media (Celsis hepatocyte incubation media) every 24 h. After the last incubation, cells were lysed in 1 ml of Qiazol (Qiagen) and stored at −80°C until RNA isolation. Cryopreserved human hepatocytes (donor designation Hu4198; Invitrogen Life Technologies, Carlsbad, CA) were thawed and plated according to the manufacturer's protocol and allowed to incubate for 24 h. […]
RNA samples were diluted with RNase-free molecular biology grade water to a concentration of 20 ng/μl total RNA. […] Results were analyzed by calculating the fold change of CYP1A1 and/or CYP1A2 mRNA levels normalized to 28S rRNA (ΔΔ Ct) in compound treated cells or tissues compared to vehicle levels. […]

[4] = 30 and 100 mg/kg/day, data not shown

decline in Cmax after 5 days of dosing compared to the first day ([1]; 30 mg/kg/day, day 5 vs day 1): 88%
decrease in plasma AUC after 5 days of dosing ([1]; 30 mg/kg/day, day 5 vs day 1): 95%
decline in Cmax after 5 days of dosing compared to the first day ([1]; 100 mg/kg/day, day 5 vs day 1): 53%
decrease in plasma AUC after 5 days of dosing ([1]; 100 mg/kg/day, day 5 vs day 1): 80%
change in AUC after 5 days of dosing ([1]; 200 mg/kg/day, day 5 vs day 1): no change
change in Cmax after 5 days of dosing ([1]; 200 mg/kg/day, day 5 vs day 1): no change
change in Tmax after 5 days of dosing [1, 4]: decrease
change in t1/2 after 5 days of dosing [1, 4]: decrease
Cmax ([1]; male, Sprague-Dawley, plasma, 30 mg/kg): ~5 µM
Cyp1a1 immunostaining in rat liver (Cyp1a1 [2]): moderate levels in centrilobular regions
Cyp1a1 mRNA induction (Cyp1a1 [3]): also observed
Compound: N#Cc1cccc(-c2noc(-c3cccnc3)n2)c1 [A-998679, 3-(5-pyridin-3-yl-1,2,4-oxadiazol-3-yl) benzonitrile]
